Data on eleven compounds can be found in patent publication US11028088B2, “Modulators of BTK proteolysis and methods of use” (Yale University, priority 2018, dated 2021).

In one experiment the target is T1, HER3 (Homo sapiens, UniProt P21860).
T1 construct: endogenous in cells; host or cells: OVCAR8
As to the kind of experiment: HER3/ERBB3 degradation (western blot, OVCAR8 cells). The class given is cell-based. As to the method:
FIG. 10 illustrates a Western blot of Compound 102-related degradation of ERBB3.
In various embodiments, treatment with PROTAC was performed in one of two ways: 1) For experiments involving >16 h exposure to compound, a 1000× stock was added to cells followed by gentle agitation; 2) For shorter treatments, a 2× stock was added to an equal volume of cells to ensure uniform drug exposure. For immortalized cell lines, 2×10^6 cells per treatment condition were collected and washed once with ice cold PBS (IX), followed by lysis in buffer containing 20 mM Tris [pH 8.0], 0.25% sodium deoxycholate, 1% Triton X-100, supplemented with protease (Roche) and phosphatase inhibitors (10 mM NaF, 2 mM Na3VO4, 10 mM β-glycerophosphate, 10 mM Na-pyrophosphate). Lysates were spun at 15,000×g for 10 min at 4° C. and supernatant was quantified for total protein content using the Pierce BCA Protein Assay (Thermo Fisher Scientific). 30 μg of protein was loaded onto 12% SDS-PAGE gels or 4-15% Mini-PROTEAN TGX precast gradient gels (Bio-Rad), transferred onto nitrocellulose membranes, and probed with the specified primary antibodies overnight with rocking at 4° C. in 1×TBS-T containing 5% non-fat milk.
(§1) Either anti-rabbit or anti-mouse HRP-conjugated secondary antibodies (Pierce) were incubated with the membranes for 1 h at room temperature at 1:10,000 dilutions in 5% non-fat milk in IX TBS-T. Imaging was performed using the ECL Prime chemiluminescent western blot detection reagents (Amersham) followed by visualization with the Bio-Rad ChemiDoc imaging instrument. All western blots were subsequently processed and quantified using the accompanying Bio-Rad Image Lab software. Primary antibodies used were: Anti-actin antibody (Cat. #MA 1-744) purchased from ThermoFisher Scientific; anti-BTK (Cat. #8547), anti-pBTK (Y223, Cat. #5082), anti-ITK (Cat. #2380), anti-GAPDH (Cat. #5179), anti-IKZF1 (Cat. #9034), and anti-IKZF3 (Cat. #15103) antibodies purchased from Cell Signaling Technology. All antibodies were used at 1:1,000 dilutions in 5% non-fat milk in 1×TBS-Tween (TBS-T) or Blotto blocker (Thermo Scientific) unless otherwise noted in supplier specifications.

The target of the next experiment is BTK (Homo sapiens, UniProt Q06187). The experiment can be described thus: BTK degradation in NAMALWA cells (immunoblot). Details: host or cells: NAMALWA. The conditions noted are these: NAMALWA cells; for DC50: concentration needed to degrade 50% of the total pool of BTK; for Max: maximal BTK degradation. Format: cell-based. As to the method:
NAMALWA and Jurkat cell lines were purchased from ATCC and cultured according to supplier guidelines at 37° C. […] Wild-type and C481S BTK XLA cell lines were cultured as previously described (39). Written, informed consent was obtained prior to the collection of cells from CLL patients using the IWCLL2008 criteria. Isolation of mononuclear cells from peripheral blood was prepared using density gradient centrifugation. B-cells were then negatively selected ([…] Technologies). […] They were maintained at 37° C. in 5% CO2.
Lysates were spun at 15,000×g for 10 min at 4° C. and supernatant was quantified for total protein content using the Pierce BCA Protein Assay (Thermo Fisher Scientific).
as §1, with “Primary antibodies used were: Anti-actin antibody (Cat. #MA 1-744) purchased from ThermoFisher Scientific; anti-BTK (Cat. #8547), anti-pBTK (Y223, Cat. #5082), anti-ITK (Cat. #2380), anti-GAPDH (Cat. #5179), anti-IKZF1 (Cat. #9034), and anti-IKZF3 (Cat. #15103) antibodies purchased from Cell Signaling Technology.” left out
(A western blot detects proteins with antibodies after separation by electrophoresis.)

Where two headings read alike, the source gives them in different places.

T1 sequence (P21860 20-1342): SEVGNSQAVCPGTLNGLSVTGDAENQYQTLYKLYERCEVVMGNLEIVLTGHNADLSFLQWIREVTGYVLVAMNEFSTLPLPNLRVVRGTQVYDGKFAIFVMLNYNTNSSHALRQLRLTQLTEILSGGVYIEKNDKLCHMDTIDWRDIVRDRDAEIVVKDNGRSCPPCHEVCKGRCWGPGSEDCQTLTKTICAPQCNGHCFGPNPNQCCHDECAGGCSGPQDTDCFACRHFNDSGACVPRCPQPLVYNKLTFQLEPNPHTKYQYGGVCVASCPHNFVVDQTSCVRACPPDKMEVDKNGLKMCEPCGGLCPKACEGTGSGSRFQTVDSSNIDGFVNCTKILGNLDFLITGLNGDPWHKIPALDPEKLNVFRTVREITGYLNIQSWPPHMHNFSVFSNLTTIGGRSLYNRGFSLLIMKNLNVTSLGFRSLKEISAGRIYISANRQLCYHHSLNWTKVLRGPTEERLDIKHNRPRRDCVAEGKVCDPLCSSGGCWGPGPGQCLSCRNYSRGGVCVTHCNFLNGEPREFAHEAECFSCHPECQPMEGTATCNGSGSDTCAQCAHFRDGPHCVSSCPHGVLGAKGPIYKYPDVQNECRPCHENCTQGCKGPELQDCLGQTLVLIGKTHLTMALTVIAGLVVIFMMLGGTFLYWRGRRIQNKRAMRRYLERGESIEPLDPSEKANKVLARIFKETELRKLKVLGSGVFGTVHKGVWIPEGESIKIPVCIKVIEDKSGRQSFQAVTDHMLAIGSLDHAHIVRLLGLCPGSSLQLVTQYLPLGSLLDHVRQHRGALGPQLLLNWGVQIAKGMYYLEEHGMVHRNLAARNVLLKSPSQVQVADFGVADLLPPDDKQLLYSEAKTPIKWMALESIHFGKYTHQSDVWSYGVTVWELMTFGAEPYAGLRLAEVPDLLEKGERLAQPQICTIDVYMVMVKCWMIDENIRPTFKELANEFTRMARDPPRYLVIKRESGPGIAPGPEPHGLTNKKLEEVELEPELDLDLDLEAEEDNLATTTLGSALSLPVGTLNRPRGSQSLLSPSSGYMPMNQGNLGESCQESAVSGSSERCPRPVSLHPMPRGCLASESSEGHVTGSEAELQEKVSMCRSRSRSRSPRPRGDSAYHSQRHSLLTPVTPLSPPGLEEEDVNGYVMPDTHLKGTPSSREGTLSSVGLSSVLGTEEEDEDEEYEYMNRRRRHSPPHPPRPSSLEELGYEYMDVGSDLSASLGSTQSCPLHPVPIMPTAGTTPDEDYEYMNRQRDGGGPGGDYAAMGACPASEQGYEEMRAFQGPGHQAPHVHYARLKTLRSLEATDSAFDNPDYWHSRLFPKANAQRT
Chain of BTK (Q06187 whole entry): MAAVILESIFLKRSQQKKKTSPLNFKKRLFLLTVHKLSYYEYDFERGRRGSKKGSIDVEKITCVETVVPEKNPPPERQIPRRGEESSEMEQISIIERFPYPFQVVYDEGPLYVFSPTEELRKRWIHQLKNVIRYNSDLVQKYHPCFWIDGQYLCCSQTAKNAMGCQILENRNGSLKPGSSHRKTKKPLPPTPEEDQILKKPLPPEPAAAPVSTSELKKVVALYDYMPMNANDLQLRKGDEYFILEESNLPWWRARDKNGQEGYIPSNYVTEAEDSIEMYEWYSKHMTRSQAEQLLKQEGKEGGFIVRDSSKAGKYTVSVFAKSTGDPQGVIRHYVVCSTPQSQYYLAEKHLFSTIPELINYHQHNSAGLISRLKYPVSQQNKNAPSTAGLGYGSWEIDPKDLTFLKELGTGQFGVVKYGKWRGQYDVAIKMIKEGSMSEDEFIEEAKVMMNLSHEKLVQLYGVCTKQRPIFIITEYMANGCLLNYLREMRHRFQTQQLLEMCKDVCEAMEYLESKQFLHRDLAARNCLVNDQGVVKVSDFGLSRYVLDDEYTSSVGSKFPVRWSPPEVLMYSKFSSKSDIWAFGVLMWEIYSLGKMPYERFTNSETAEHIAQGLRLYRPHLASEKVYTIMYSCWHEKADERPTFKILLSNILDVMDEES

One may read the DC50 as the concentration at which degradation of the target reaches its halfway point. Take `Nc1ncnc2c1c(-c1ccc(Oc3ccccc3)cc1)nn2C1CCN(CCCCCCOCCCCCCOCC(=O)Nc2cccc3c2C(=O)N(C2CCC(=O)NC2=O)C3=O)CC1` (stereo not drawn) [Compound 107, 2-(6-(6-(4-(4-amino-3-(4-phenoxyphenyl)-1H-pyrazolo[3,4-d]pyrimidin-1-yl)piperidin-1-yl)hexyloxy)hexyloxy)-N-(2-(2,6-dioxopiperidin-3-yl)-1,3-dioxoisoindolin-4-yl)acetamide]: the “HER3 Degradation” value at HER3 was “No”. For the same compound, on BTK (read-out: DC50), the 50% degradation concentration (DC50) is 98.5 nM. Further, at BTK (at 1.0 μM), the Max was 98%.

Consider `Cc1ncsc1-c1ccc(CNC(=O)[C@@H]2C[C@@H](O)CN2C(=O)[C@@H](NC(=O)CCCCCOCCCCCOCCCCCCN2CCC(n3nc(-c4ccc(Oc5ccccc5)cc4)c4c(N)ncnc43)CC2)C(C)(C)C)cc1` [Compound 117, (2S,4R)-1-((S)-2-(6-(5-(6-(4-(4-amino-3-(4-phenoxyphenyl)-1H-pyrazolo[3,4-d]pyrimidin-1-yl)piperidin-1-yl)hexyloxy)pentyloxy)hexanamido)-3,3-dimethylbutanoyl)-4-hydroxy-N-(4-(4-methylthiazol-5-yl)benzyl)pyrrolidine-2-carboxamide], for which, on HER3, the “HER3 Degradation” value is reported as “No”. Further, the DC50 result on BTK is recorded as “No Degradation”.

For the compound `Cc1ncsc1-c1ccc(CNC(=O)[C@@H]2C[C@@H](O)CN2C(=O)[C@@H](NC(=O)COCCCCCOCCCCCCN2CCC(n3nc(-c4ccc(Oc5ccccc5)cc4)c4c(N)ncnc43)CC2)C(C)(C)C)cc1` [Compound 111, (2S,4R)-1-((S)-2-(2-(5-(6-(4-(4-amino-3-(4-phenoxyphenyl)-1H-pyrazolo[3,4-d]pyrimidin-1-yl)piperidin-1-yl)hexyloxy)pentyloxy)acetamido)-3,3-dimethylbutanoyl)-4-hydroxy-N-(4-(4-methylthiazol-5-yl)benzyl)pyrrolidine-2-carboxamide], the “HER3 Degradation” value on HER3 was “No”. Besides, the 50% degradation concentration (DC50) on BTK (read-out: DC50) was 144 nM. For the same compound, the Max at BTK (at 1.0 μM) stood at 45%.

Take `Cc1ncsc1-c1ccc(CNC(=O)[C@@H]2C[C@@H](O)CN2C(=O)[C@@H](NC(=O)COCCOCCOCCOCCOCCCCCCN2CCC(n3nc(-c4ccc(Oc5ccccc5)cc4)c4c(N)ncnc43)CC2)C(C)(C)C)cc1` [Compound 118, (2S,4R)-1-((S)-25-(4-(4-amino-3-(4-phenoxyphenyl)-1H-pyrazolo[3,4-d]pyrimidin-1-yl)piperidin-1-yl)-2,2-dimethyl-5-oxo-7,10,13,16,19-pentaoxa-4-azapentacosanecarbonyl)-4-hydroxy-N-(4-(4-methylthiazol-5-yl)benzyl)pyrrolidine-2-carboxamide]: the “HER3 Degradation” value at HER3 was “No”. Moreover, the 50% degradation concentration (DC50) at BTK (read-out: DC50) came to 231 nM. Further, the Max on BTK (at 1.0 μM) is given as 40%.

Take `Nc1ncnc2c1c(-c1ccc(Oc3ccccc3)cc1)nn2C1CCN(CCOCC(=O)Nc2cccc3c2C(=O)N(C2CCC(=O)NC2=O)C3=O)CC1` (stereo not drawn) [Compound 100, 2-(2-(4-(4-amino-3-(4-phenoxyphenyl)-1H-pyrazolo[3,4-d]pyrimidin-1-yl)piperidin-1-yl)ethoxy)-N-(2-(2,6-dioxopiperidin-3-yl)-1,3-dioxoisoindolin-4-yl)acetamide]: the “HER3 Degradation” value at HER3 is “No”. For the same compound, on BTK (dose escalation, 24 h), the “ability to degrade BTK” value is listed as “inability to degrade BTK”. Also, the 50% degradation concentration (DC50) result at BTK is “No Degradation (n = 4)”.

As for `Cc1ncsc1-c1ccc(CNC(=O)[C@@H]2C[C@@H](O)CN2C(=O)[C@@H](NC(=O)CCCCCOCCOCCCCCCN2CCC(n3nc(-c4ccc(Oc5ccccc5)cc4)c4c(N)ncnc43)CC2)C(C)(C)C)cc1` [Compound 112, (2S,4R)-1-((S)-2-(6-(2-(6-(4-(4-amino-3-(4-phenoxyphenyl)-1H-pyrazolo[3,4-d]pyrimidin-1-yl)piperidin-1-yl)hexyloxy)ethoxy)hexanamido)-3,3-dimethylbutanoyl)-4-hydroxy-N-(4-(4-methylthiazol-5-yl)benzyl)pyrrolidine-2-carboxamide], the “HER3 Degradation” value at HER3 is on record as “No”. Also, the DC50 result at BTK was “No Degradation”.

With `Cc1ncsc1-c1ccc(CNC(=O)[C@@H]2C[C@@H](O)CN2C(=O)[C@@H](NC(=O)COCCOCCOCCOCCN2CCC(n3nc(-c4ccc(Oc5ccccc5)cc4)c4c(N)ncnc43)CC2)C(C)(C)C)cc1` [Compound 109, (2S,4R)-1-((S)-17-(4-(4-amino-3-(4-phenoxyphenyl)-1H-pyrazolo[3,4-d]pyrimidin-1-yl)piperidin-1-yl)-2-tert-butyl-4-oxo-6,9,12,15-tetraoxa-3-azaheptadecane)-4-hydroxy-N-(4-(4-methylthiazol-5-yl)benzyl)pyrrolidine-2-carboxamide], the “HER3 Degradation” value on HER3 was “No”. Besides, at BTK (read-out: DC50), the DC50 amounted to 278 nM. This compound showed a Max on BTK (at 2.5 μM) of 73%.

In the case of `Cc1ncsc1-c1ccc(CNC(=O)[C@@H]2C[C@@H](O)CN2C(=O)[C@@H](NC(=O)COCCOCCOCCOCCCCN2CCC(n3nc(-c4ccc(Oc5ccccc5)cc4)c4c(N)ncnc43)CC2)C(C)(C)C)cc1` [Compound 113, (2S,4R)-1-((S)-19-(4-(4-amino-3-(4-phenoxyphenyl)-1H-pyrazolo[3,4-d]pyrimidin-1-yl)piperidin-1-yl)-2-tert-butyl-4-oxo-6,9,12,15-tetraoxa-3-azanonadecane)-4-hydroxy-N-(4-(4-methylthiazol-5-yl)benzyl)pyrrolidine-2-carboxamide], the “HER3 Degradation” value at HER3 is on record as “No”. For the same compound, the half-maximal degradation concentration (DC50) at BTK (read-out: DC50) is 124 nM. The same compound yielded a Max on BTK (at 1.0 μM) of 60%.

`C=CC(=O)Nc1cc(-c2nn(C3CCN(CCCOCCCOCCC(=O)Nc4cccc5c4C(=O)N(C4CCC(=O)NC4=O)C5=O)CC3)c3ncnc(N)c23)ccc1Oc1ccccc1` (stereo not drawn) [Compound 121, N-(5-(4-amino-1-(1-(3-(3-(3-(2-(2,6-dioxopiperidin-3-yl)-1,3-dioxoisoindolin-4-ylamino)-3-oxopropoxy)propoxy)propyl)piperidin-4-yl)-1H-pyrazolo[3,4-d]pyrimidin-3-yl)-2-phenoxyphenyl)acrylamide]: the “HER3 Degradation” value at HER3 was “No”. Also, at BTK, the half-maximal degradation concentration (DC50) result is “No Degradation”.

With `Cc1ncsc1-c1ccc(CNC(=O)[C@@H]2C[C@@H](O)CN2C(=O)[C@@H](NC(=O)COCCOCCOCCOCCN2CCN(C3CCC(n4nc(-c5ccc(Oc6ccccc6)cc5)c5c(N)ncnc54)CC3)CC2)C(C)(C)C)cc1` (stereo partly drawn) [Compound 114, (2S,4R)-1-((S)-17-(4-(4-(4-amino-3-(4-phenoxyphenyl)-1H-pyrazolo[3,4-d]pyrimidin-1-yl)cyclohexyl)piperazin-1-yl)-2-tert-butyl-4-oxo-6,9,12,15-tetraoxa-3-azaheptadecane)-4-hydroxy-N-(4-(4-methylthiazol-5-yl)benzyl)pyrrolidine-2-carboxamide], the “HER3 Degradation” value on HER3 is “No”. Further, at BTK (read-out: DC50), the DC50 amounted to 248 nM. The compound also had a Max on BTK (at 1.0 μM) of 30%.

As to `Nc1ncnc2c1c(-c1ccc(Oc3ccccc3)cc1)nn2C1CCN(CCCOCCCOCCC(=O)Nc2cccc3c2C(=O)N(C2CCC(=O)NC2=O)C3=O)CC1` (stereo not drawn) [Compound 103, 3-(3-(3-(4-(4-amino-3-(4-phenoxyphenyl)-1H-pyrazolo[3,4-d]pyrimidin-1-yl)piperidin-1-yl)propoxy)propoxy)-N-(2-(2,6-dioxopiperidin-3-yl)-1,3-dioxoisoindolin-4-yl)propanamide], on HER3, the “HER3 Degradation” value is “No”. Moreover, at BTK (read-out: DC50), the half-maximal degradation concentration (DC50) worked out at 68.3 nM. On BTK (at 1.0 μM), this compound came in with a Max of 95%.
